Measured values: patent US20030082226A1, “Non-steroidal antiinflammatory drug formulations for topical application to the skin” (priority 1997, published 2003)

Test: Delivery of various NSAIDs through human skin, effect of propylene glycol, static cells (Example 8)
Format: in vitro ADME
Conditions: 10% enhancer; for Avg 24 Hour % Dose: ethanol:water 70:30, pH about 7, human skin; for effect of propylene glycol on total delivery (percent of original dose) at twenty four hours: 0 to 20% PG
Text: All the tested formulations included ethanol and water at a 70:30 weight ratio and were neutralized with base to a pH of about 7.

| Structure (SMILES) | Avg 24 Hour % Dose (0% PG) [%] | Avg 24 Hour % Dose (10% PG) [%] | effect of propylene glycol on total delivery (percent of original dose) at twenty four hours | Avg 24 Hour % Dose (20% PG) [%] | Avg 24 Hour % Dose (5% PG) [%] | Avg 24 Hour % Dose (15% PG) [%] |
| --- | --- | --- | --- | --- | --- | --- |
| CN1C(C(=O)Nc2ccccn2)=C(O)c2ccccc2S1(=O)=O [Piroxicam] | 66.3 | 55.1 | substantially neutral | 63.5 | – | – |
| CC(C(=O)O)c1cccc(C(=O)c2ccccc2)c1 (stereo not shown) [Ketoprofen] | 9.1 | 12.0 | – | 27.0 | 10.3 | – |
| O=C(c1ccccc1)c1ccc2n1CCC2C(=O)O (stereo not shown) [Ketorolac] | 10.8 | 25.0 | intermediate | 19.3 | 27.1 | – |
| O=C(O)Cc1ccccc1Nc1c(Cl)cccc1Cl [Diclofenac] | 18.7 | 35.3 | – | 45.2 | 29.7 | – |
| CC(C)Cc1ccc(C(C)C(=O)O)cc1 (stereo not shown) [Ibuprofen] | 61.7 | 56.5 | – | 28.3 | 57.9 | 50.1 |
